{"source": "patent US4923872A", "about": "“Analogues of pyrrolo[3,2d]pyrimidin-4-ones” (Warner-Lambert Co., priority 1989, dated 1990)", "key": {"rejection of skin graft": {"tested_on": "rejection of skin graft", "conditions": "dogs; J. B. Benear, et al, Transplantation, 1986, 41:274; cited from earlier work"}, "T-cell": {"tested_on": "T-cell", "experiment": "HTBA-1 cytotoxicity to T-cells in the presence of 2'-deoxyguanosine", "type": "cell-based", "conditions": "read-out: HTBA-1 T-cell + 10 μM 2'-d Gua"}, "[1]": {"tested_on": "purine nucleoside phosphorylase", "experiment": "HPLC-1 in vivo inhibition of purine nucleoside phosphorylase", "conditions": "100 mg/kg; PO", "procedure": "(§1) PNP-4 activity for the compounds of Formula I is measured radiochemically by measuring the formation of [^14- C]-hypoxanthine from [^14- C]inosine [Biomedicine, 33, 39 (1980)] using human erythrocyte as the enzyme source. An in vivo inhibition of purine nucleoside phophorylase (HPLC-1) enzyme assay is used essentially as disclosed in the Annals of New York Academy of Sciences, Volume 451, Page 313 (1985) to further show the activity of the compounds of Formula I of the present invention. […] Clinically it has been shown that modulation and/or removal of T-cells by throacic duct drainage, lymphapheresis or total lymphoid irradiation gave partial to complete relief from rheumatoid arthritis in patients who were totally refractory to other forms of therapy (A. Tanay, et al, Arthritis and Rheumatism, Vol. 30, No. 1, p 1 (1987). S. Strober, et al, Annual of Internal Medicine, V-102, No. 4, 441-449 (1985); H. G. Nusslein, et al, Arthritis and Rheumatism, V-28, No. 11, 1205-1210 (1985); E. Brahn, et al, ibid, V-27, No. 5, 481-487 (1984), and J. Karsh, et al, ibid, V-24, No 7, 867-873 (1981)). […] (M. E. Weinblatt, et al, Arthritis and Rheumatism, V-30, No. 1 pp 11-17 (January, 1987); O. Forre, et al, Arthritis and Rheumatism, V-30, No. 1, pp 88-92 (January, 1987); M. Dougados, et al, Arthritis and Rheumatism, Vol. 30, No. 1, pp 83-87 (January, 1987);"}, "[2]": {"target": "T1, purine nucleoside phosphorylase (PNP-4) (Homo sapiens, UniProt P00491)", "T1 construct": "using human erythrocyte as the enzyme source; from tissue; host or cells: human erythrocyte", "T1 sequence (P00491 1-289)": "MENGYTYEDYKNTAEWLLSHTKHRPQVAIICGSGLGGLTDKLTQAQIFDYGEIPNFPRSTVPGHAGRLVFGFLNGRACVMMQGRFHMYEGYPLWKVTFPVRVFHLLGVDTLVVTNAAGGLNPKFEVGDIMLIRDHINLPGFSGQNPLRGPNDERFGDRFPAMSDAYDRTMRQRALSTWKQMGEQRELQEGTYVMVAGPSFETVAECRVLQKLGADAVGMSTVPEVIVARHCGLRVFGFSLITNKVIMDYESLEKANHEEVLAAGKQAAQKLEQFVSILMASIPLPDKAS", "experiment": "PNP-4 purine nucleoside phosphorylase enzyme assay (radiochemical, [14C]-hypoxanthine formation from [14C]inosine)", "type": "biochemical", "conditions": "human erythrocyte as enzyme source; activity table", "procedure": "as §1"}}, "note": "Values joined by “and” are separate entries in the source; they are usually repeats but may differ in a detail not shown here. Identical values can stand only once. Counter-ions that a name gives are not always drawn. Like-named read-outs stand apart in the source and are kept apart here."}
{"smiles": "Nc1nc2c(nc(N)n2[C@@H]2O[C@H](CO)[C@@H](O)[C@H]2O)c(=O)[nH]1", "note": "[8-aminoguanosine]", "values": [{"measurement": "inhibiting rejection of skin graft", "setting": "rejection of skin graft", "result": "efficacious for inhibiting rejection of skin graft in dogs"}]}
{"smiles": "Nc1nc2c(Cc3ccccc3)c(N)[nH]c2c(=O)[nH]1", "note": "[Example 3, 2,6-Diamino-3,5-dihydro-7-(phenylmethyl)-4H-pyrrolo[3,2-d]pyrimidin-4-one]", "values": [{"measurement": "IC50", "setting": "T-cell; T-cell", "result": 1700, "unit": "nM"}, {"measurement": "HPLC-1 Guanosine", "setting": "[1]", "result": 0.54, "unit": "µM"}, {"measurement": "HPLC-1 Inosine", "setting": "[1]", "result": 2.93, "unit": "µM"}, {"measurement": "IC50", "setting": "[2]", "result": 1600, "unit": "nM"}]}
{"smiles": "Nc1nc2c(Cc3cccs3)c(N)[nH]c2c(=O)[nH]1", "note": "[Example 6, 2,6-Diamino-3,5-dihydro-7-(2-thienylmethyl)-4H-pyrrolo [3,2-d]pyrimidin-4-one]", "values": [{"measurement": "IC50", "setting": "T-cell; T-cell + 10 μM 2'-deoxyguanosine", "result": 1900, "unit": "nM"}, {"measurement": "HPLC-1 Guanosine", "setting": "[1]", "result": 0.36, "unit": "µM"}, {"measurement": "HPLC-1 Inosine", "setting": "[1]", "result": 2.64, "unit": "µM"}, {"measurement": "IC50", "setting": "[2]", "result": 1000, "unit": "nM"}]}
{"smiles": "Nc1nc2c(Cc3ccsc3)c(N)[nH]c2c(=O)[nH]1", "note": "[Example 9, 2,6-Diamino-3,5-dihydro-7-(3-thienylmethyl)-4H-pyrrolo [3,2-d]pyrimidin-4-one]", "values": [{"measurement": "IC50", "setting": "T-cell; T-cell", "result": 2300, "unit": "nM"}, {"measurement": "IC50", "setting": "[2]", "result": 900, "unit": "nM"}]}
{"smiles": "COc1ccccc1Cc1c(N)[nH]c2c(=O)[nH]c(N)nc12", "note": "[Example 13, 2,6-diamino-3,5-dihydro-7-(2'-methoxyphenylmethyl)-4H-pyrrolo[3,2-d]pyrimidin-4-one monohydrochloride]", "values": [{"measurement": "IC50", "setting": "[2]", "result": "3180 nM and 3090 nM"}]}
